The nature of data set [1]: SPAAC reaction kinetics of 101 with N-azidoacetylmannosamine monitored by 1H-NMR. Type of data set: physicochemical. The conditions noted are these: 20 mM, CD3OD-D2O (5:1, v/v), 25° C. As for the experimental part:
To evaluate the feasibility of compound 101 as a reagent for the SPAAC-based fluorescence labeling, its reaction scope and kinetics using benzyl azide as a model substrate was first studied. The SPAAC reaction of 101 with benzyl azide in acetonitrile was completed in 2 h at room temperature to give triazole 111 in 95% yield (Scheme 100). The reactivity of 101 with benzyl azide (1:1) in CD3CN was determined by integration of multiple chemical shifts in the ^1H-NMR spectrum to yield a second-order rate constant of 0.012 M^−1s^−1 at 25° C. […]
Part B: Compound 101 and N-azidoacetylmannosamine were predissolved in CD3OD/D2O (5:1, v/v), and then mixed at equimolar concentration of 20 mM. The reaction was monitored by ^1H-NMR analysis over a period of 1 h. The concentration of each component was determined, based on the concentration of initial compound 101, by integration at multiple chemical shifts in the ^1H-NMR spectrum. […] (M^−1) vs. time (sec), a second order rate constant in unit of M^−1s^−1 was determined using linear regression analysis. […]
FIG. 18 describes a Plot of 1/[101] vs. time for the reaction of compound 101 and N-azidoacetylmannosamine in a solution of CD3OD-D2O (5:1, v/v) as monitored by ^1H-NMR.

A further data set relates to CL1-5 cells. In words: Live cell imaging of azido-glycoconjugates, no-wash and no-fixation. Format: cell-based. To be noted: for cell permeability: live CL1-5 cells, intracellular labeling. As for the experimental part: The performance of 101 in live cell imaging was evaluated. For this purpose, highly sialylated lung cancer cells, CL1-5, were cultured in the presence of peracetylated N-azidoacetylmannosamine (Ac4ManNAz) for 3 days to metabolically produce the azido-sialic acid expressed cells. As a negative control, CL1-5 cells were grown in the presence of peracetylated N-acetylmannosamine (Ac4ManNAc). A time course experiment was conducted by exposing the cells at 30-min intervals under no-wash and no-fixation conditions (FIG. 19, FIG. 22). […] Furthermore, the localization of azido-containing glycoconjugates in living cells was visualized by confocal microscopy. The cells labeled by probe 101 were subsequently stained with anti-GRASP65 followed by FITC-conjugated anti-rabbit for Golgi and propidium iodide (PI, a nuclei marker).
Toward this goal, CL1-5 cells were incubated with Ac4ManNAz for 1 h and subsequently removed excess Ac4ManNAz. We then performed the imaging to monitor the trafficking of the sialylated glycoconjugates. […] However, the appearance of blue fluorescence signal was detected on the cell surface after 5 h. The intensity of fluorescence increased over time, and reached saturation at 8 h (FIG. 21 and FIG. 23).
To observe the fluorescence labeled azido-glycoconjugates in cells, CL1-5 cells were seeded on chamber slide (2.5×10^4 cells/0.5 mL per wells) and incubated in culture medium (RPMI-1640 supplemented with 10% FBS, 100 U/mL penicillin, 100 μg/mL streptomycin, 1 mM L-glutamine and 1 mM sodium pyruvate) with either 200 μM of control sugar (peracetylated N-acetylmannosamine, Ac4ManNAc) or azido-sugar (peracetylated N-azidoacetylmannosamine, Ac4ManNAz) for 3 days.
For Time-lapse imaging of live cells, experiments were carried out using a confocal microscope (TCS-SP5-MP-SMD, Leica) equipped with an incubator to keep the cells in culture conditions. Prewashed cells were incubated with 100 μM of probe 101 in PBS with 10% DMSO and fluorescence imaging of live cells from the previous experiment over 1.5 h. The images were acquired at 450 nm emission and in 5-min intervals.
To observe the fluorescence labeled sialylconjugates in cells dependent on different time, CL1-5 cells were seeded on chamber slide (2.5×10^4 cells/0.5 mL per wells) and incubated in culture medium (RPMI-1640 supplemented with 10% FBS, 100 U/mL penicillin, 100 μg/mL streptomycin, 1 mM L-glutamine and 1 mM sodium pyruvate) with 500 μM of azido-sugar (peracetylated N-azidoacetylmannosamine, Ac4ManNAz) for 1 h. Cells were washed three times with PBS and then incubated in culture medium. […] For fluorescence imaging of live cells, experiments were carried out using a confocal microscope (TCS-SP5-MP-SMD, Leica) equipped with an incubator to keep the cells in culture conditions.

Another data set concerns living cells. In words: Cytotoxicity of probe in living cells. Format: cell-based.
The nature of data set [2]: Stability in presence of 3-mercaptopropionic acid by 1H-NMR. Type of data set: physicochemical. To be noted: 25 mM in CDCl3 with 3-mercaptopropionic acid (32 mM), 25° C., 24 h. As for the experimental part:
A potential problematic side reaction of cyclooctynes is the addition with proteinic or endogenous thiols to the corresponding vinyl sulfides. To test whether potential non-specific stainings of 101 and the corresponding triazole 111 may occur due to additions of the SH groups to the triple bond or double bond by proteinic or endogenous thiols, the experiment was performed by incubation of 101 and 111 with 3-mercaptopropionic acid in CDCl3 (FIGS. 25 and 26).
A solution of compound 101 and compound 111 (25 mM in CDCl3) was incubated with a solution of 3-mercaptopropionic acid (32 mM in CDCl3) at room temperature (25° C.).
FIG. 25 show ^1H-NMR spectrum in CDCl3 of compound 101 and 3-mercaptopropionic acid alone, and ^1H-NMR spectrum of compound 101 was treated with 3-mercaptopropionic acid at 25° C. for 0 h, 2 h and 24 h.

Entries after “also recorded” stand apart in the source; their conditions may differ.

Turning to `O=c1ccc2cc3c(cc2o1)C#CCCCC3` [Compound 101, 6,7,8,9-Tetrahydro-10,11-didehydro-cycloocta[g]chromen-2(2H)-one], in data set [1], the second-order rate constant was 0.010 M⁻¹ s⁻¹. In addition, the “incubation time to saturation of fluorescence intensity” value with CL1-5 cells (Ac4ManNAz treated CL1-5 cells, 100 μM probe, no-wash and no-fixation) was 1.5 h. In addition, in the data set on CL1-5 cells (control cells grown with Ac4ManNAc), the background labeling entry is on record as “background labeling is negligible”. The values for the cell permeability entry with CL1-5 cells and in the data set on CL1-5 cells (listed as coumOCT) were “cell-permeable” and “cell-permeable probe”, respectively. In the data set with living cells, the cytotoxicity result is given as “low cytotoxicity; also recorded: nontoxic”. In addition, the “thiol-yne or thiol-ene addition / stability in the presence of thiols” value in data set [2] is “inactive; also recorded: high stability”.

Source of the values: patent US10119972B2, “Reactive labelling compounds and uses thereof” (Academia Sinica, priority 2014, dated 2018).
